In patent US12384768B2, “Isoxazole carboxylic acids as LPA antagonists” (BRISTOL-MYERS SQUIBB COMPANY, priority 2019, dated 2025):
pIC50: −log10 of the molar value.

Columns and labels:
human LPA1 = target: T1, human LPA1 (Homo sapiens, UniProt Q92633); assay: LPA1 functional antagonist assay (calcium flux); format: cell-based; details: CHO cells overexpressing human LPA1; inhibition of calcium flux induced by 10 nM LPA; read-out: hLPA1 IC50
T1 construct: expressed in transfected cells; host or cells: Chinese hamster ovary (CHO) cells
Procedure: The effectiveness of compounds of the present invention as LPA1 inhibitors can be determined in an LPA1 functional antagonist assay as follows:
Chinese hamster ovary cells overexpressing human LPA1 were plated overnight (15,000 cells/well) in poly-D-lysine coated 384-well microplates (Greiner bio-one, Cat #781946) in DMEM/F12 medium (Gibco, Cat #11039). Following overnight culture, cells were loaded with calcium indicator dye (AAT Bioquest Inc, Cat #34601) for 30 minutes at 37° C. The cells were then equilibrated to room temperature for 30 minutes before the assay. Test compounds solubilized in DMSO were transferred to 384 well non-binding surface plates (Corning, Cat #3575) using the Labcyte Echo acoustic dispense and diluted with assay buffer [1×HBSS with calcium/magnesium (Gibco Cat #14025-092), 20 mM HEPES (Gibco Cat #15630-080) and 0.1% fatty acid free BSA (Sigma Cat #A9205)] to a final concentration of 0.5% DMSO. Diluted compounds were added to the cells by FDSS6000 (Hamamatsu) at final concentrations ranging from 0.08 nM to 5 μM. and were then incubated for 20 min at room temperature at which time LPA (Avanti Polar Lipids Cat #857130C) was added at final concentrations of 10 nM to stimulate the cells. The compound IC50 value was defined as the concentration of test compound which inhibited 50% of the calcium flux induced by LPA alone. IC50 values were determined by fitting data to a 4-parameter logistic equation (GraphPad Prism, San Diego CA).

IPF patients = details: 26-week clinical trial, IPF patients (Palmer et al.); cited from earlier work
nerve-injured mice = details: pretreatment, nerve-injured mice (Inoue et al.); cited from earlier work
[1] = tested on: human foetal lung fibroblasts; details: Tager et al.; cited from earlier work
UUO mice = details: cited from earlier work
[2] = tested on: mouse epithelial renal cell line, MCT; details: MCT cells, co-treatment with LPA; cited from earlier work
[3] = tested on: pancreatic cancer cell lines; details: cited from earlier work

T1 sequence (Q92633 whole entry): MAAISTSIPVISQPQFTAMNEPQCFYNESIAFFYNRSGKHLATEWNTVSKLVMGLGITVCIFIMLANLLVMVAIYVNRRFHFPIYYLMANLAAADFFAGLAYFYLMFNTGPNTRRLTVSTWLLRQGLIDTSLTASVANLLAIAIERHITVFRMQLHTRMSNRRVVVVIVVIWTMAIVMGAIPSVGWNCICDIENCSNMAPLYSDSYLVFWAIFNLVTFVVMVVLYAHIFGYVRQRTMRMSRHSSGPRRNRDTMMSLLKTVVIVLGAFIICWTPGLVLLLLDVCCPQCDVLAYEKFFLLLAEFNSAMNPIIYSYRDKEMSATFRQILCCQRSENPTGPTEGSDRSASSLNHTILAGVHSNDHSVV

Structure (SMILES) | pIC50 (human LPA1) | also measured
Cc1noc(-c2ccc(O[C@H]3COC[C@H](C(=O)O)C3)cc2)c1COC(=O)N(C)C1CCCC1 (racemic) [Example 1, (±)-trans-5-(4-(4-(((cyclopentyl(methyl)carbamoyl)oxy)methyl)-3-methylisoxazol-5-yl)phenoxy)tetrahydro-2H-pyran-3-carboxylic acid)] | 6.85 | 
Cc1noc(-c2ccc(O[C@@H]3COC[C@H](C(=O)O)C3)cc2)c1COC(=O)N(C)C1CCCC1 (racemic) [Example 2, (±)-cis-5-(4-(4-(((cyclopentyl(methyl)carbamoyl)oxy)methyl)-3-methyl-isoxazol-5-yl)phenoxy)tetrahydro-2H-pyran-3-carboxylic acid)] | 6.84 | 
Cc1noc(-c2ccc(O[C@H]3CCO[C@H](C(=O)O)C3)cc2)c1COC(=O)N(C)C1CCCC1 (racemic) [Example 5, (±)-trans-4-(4-(4-(((cyclopentyl(methyl)carbamoyl)oxy)methyl)-3-methylisoxazol-5-yl)phenoxy)tetrahydro-2H-pyran-2-carboxylic acid] | 6.25 | 
Cc1noc(-c2ccc(O[C@H]3CCO[C@@H](C(=O)O)C3)cc2)c1COC(=O)N(C)C1CCCC1 (racemic) [Example 6, (±)-cis-4-(4-(4-(((cyclopentyl(methyl)carbamoyl)oxy)methyl)-3-methylisoxazol-5-yl)phenoxy)tetrahydro-2H-pyran-2-carboxylic acid] | 6.54 | 
Cc1noc(-c2ccc(OC3CCC4C(C(=O)O)C34)cc2)c1COC(=O)N(C)C1CCCC1 (racemic) [Example 14, (±)-2-(4-(4-(((Cyclopentyl(methyl)carbamoyl)oxy)methyl)-3-methylisoxazol-5-yl)phenoxy)bicyclo[3.1.0]hexane-6-carboxylic acid] | 7.32 | 
Cc1noc(-c2ccc(OC3CCCC4C(C(=O)O)C34)cc2)c1COC(=O)N(C)C1CCCC1 (racemic) [Example 17, (±)-2-(4-(4-(((Cyclopentyl(methyl)carbamoyl)oxy)methyl)-3-methylisoxazol-5-yl)phenoxy) bicyclo [4.1.0]heptane-7-carboxylic acid] | 6.40 | 
Cc1noc(-c2ccc(-c3ccc(C4(C(=O)O)CC4)cc3)cc2)c1NC(=O)O[C@H](C)c1ccccc1 [BMS-986020] |  | rate of FVC (forced vital capacity) decline (IPF patients): significantly reduce
Cc1noc(-c2ccc(OC3CCCC4C(C(=O)O)C34)cc2)c1COC(=O)N(C)CC1CCC1 (stereo not drawn) [Example 19] | 5.87 | 
C[C@@H](N)[C@H]1CC[C@H](C(=O)Nc2ccncc2)CC1 [Example Y-27632] |  | allodynia and hyperalgesia (nerve-injured mice): completely abolished
Cc1noc(-c2ccc(CSCCC(=O)O)cc2)c1NC(=O)OC(C)c1ccccc1Cl (stereo not drawn) [Ki16425] |  | chemotaxis of human foetal lung fibroblasts induced by BAL from IPF patients [1]: blocked; development of renal fibrosis, profile compared with LPA1 (-/-) mice (UUO mice): closely resembled the profile of LPA1 (−/−) mice; LPA-induced expression of CTGF [2]: almost completely suppressed; LPA-induced and ascites-induced invasion activity ([3]; highly peritoneal metastatic pancreatic cancer cell line): blocked; in vitro migration in response to LPA and peritoneal fluid (ascites) ([3]; pancreatic cancer cell lines (Yamada et al.)): effectively blocked

Second part, led by results:

pIC50 (human LPA1) | Structure (SMILES) | also measured
6.66 | Cc1noc(-c2ccc(O[C@@H]3COC[C@@H](C(=O)O)C3)cc2)c1COC(=O)N(C)CCC(C)C (racemic) [Example 3] | 
6.70 | Cc1noc(-c2ccc(O[C@H]3CCO[C@@H](C(=O)O)C3)cc2)c1COC(=O)N(C)CCC(C)C (racemic) [Example 7] | 
6.74 | Cc1noc(-c2ccc(O[C@H]3C[C@H](C(=O)O)C[C@@H]4C[C@@H]43)cc2)c1COC(=O)N(C)C1CCCC1 (racemic) [Example 10, (±)-(1S,3R,5S,6S)-5-(4-(4-(((cyclopentyl(methyl)carbamoyl)oxy)methyl)-3-methyl-isoxazol-5-yl)phenoxy) bicyclo[4.1.0]heptane-3-carboxylic acid] | 
7.19 | Cc1noc(-c2ccc(OC3CC(C(=O)O)CC4CC43)cc2)c1COC(=O)N(C)C1CCCC1 (racemic) [Example 11, (±)-(1R,3R,5R,6R)-5-(4-(4-(((cyclopentyl(methyl)carbamoyl)oxy)methyl)-3-methylisoxazol-5-yl)phenoxy)bicyclo[4.1.0]heptane-3-carboxylic acid] | 
6.71 | Cc1noc(-c2ccc(O[C@@H]3C[C@H](C(=O)O)C[C@H]4C[C@H]43)cc2)c1COC(=O)N(C)C1CCCC1 (racemic) [Example 12, (±)-(1R,3R,5R,6R)-5-(4-(4-(((cyclopentyl(methyl)carbamoyl)oxy)methyl)-3-methylisoxazol-5-yl)phenoxy)bicyclo[4.1.0]heptane-3-carboxylic acid] | 
7.66 | CCCCN(C)C(=O)OCc1c(C)noc1-c1ccc(O[C@@H]2C[C@H](C(=O)O)C[C@@H]3C[C@@H]32)cn1 (racemic) [Example 13, (±)-(1S,3R,5R,6S)-5-((6-(4-(((butyl(methyl)carbamoyl)oxy)methyl)-3-methyl-isoxazol-5-yl)pyridin-3-yl)oxy)bicyclo[4.1.0]heptane-3-carboxylic acid] | 
6.25 | Cc1noc(-c2ccc(OC3CC4C(C3)C4C(=O)O)cc2)c1COC(=O)N(C)CC1CCC1 (racemic) [Example 15, (±)-3-(4-(4-((((Cyclobutylmethyl)(methyl)carbamoyl)oxy)methyl)-3-methyl-isoxazol-5-yl)phenoxy)bicyclo[3.1.0]hexane-6-carboxylic acid] | 
7.39 | Cc1noc(-c2ccc(O[C@@H]3CCO[C@H](C(=O)O)C3)cc2)c1COC(=O)N(C)CCC(C)C (single isomer, unassigned) [Example 9] | 
6.99 | Cc1noc(-c2ccc(O[C@@H]3COC[C@H](C(=O)O)C3)cc2)c1COC(=O)N(C)CCC(C)C [Example 4] | 
5.96 | Cc1noc(-c2ccc(O[C@H]3CCO[C@H](C(=O)O)C3)cc2)c1COC(=O)N(C)CCC(C)C [Example 8] | 
6.43 | CCCCN(C)C(=O)OCc1c(C)noc1-c1ccc(OC2CC3C(C2)C3C(=O)O)cc1 (stereo not drawn) [Example 16] | 
6.01 | CCCCN(C)C(=O)OCc1c(C)noc1-c1ccc(OC2CCCC3C(C(=O)O)C23)cc1 (stereo not drawn) [Example 18] | 
5.82 | Cc1noc(-c2ccc(OC3CCCC4C(C(=O)O)C34)cc2)c1COC(=O)N(C)CC1CC1 (stereo not drawn) [Example 20] | 
